Holding throughout (assay type): cell-based
For data set [1], the system named is HIV-1 attachment to HeLa CD4 LTR B-gal cells. As to the kind of experiment: Inhibition of attachment assay. The settings on record: for IC50: attachment assay. On the procedure: (§1) The attachment assay was performed with the HeLa CD4 LTR B-gal cells available from the AIDS Research and Reference Reagent Repository. […] HeLa CD4 LTR B-gal cells express cell surface CD4 and contain an LTR B-galactosidase reporter construct. Upon infection either the Tat protein incorporated into the virion or new Tat produced following virus integration and transcription trans-activate the LTR B-gal reporter, leading to expression of the B-galactosidase enzyme. HeLa CD4 LTR B-gal cells are routinely cultured with the required selection antibiotics and scrended for mycoplasma contamination. Twenty-four h prior to initiation of the assay cells were trypsinized, counted and 1×10^4 cells placed in a 0.2 cm well in media without selection antibiotics. Media was removed and compound media placed on the cells and incubated for 15 to 30 min at 37° C. A known titer of virus was then added to the wells and the incubation continued for 1 h. At the end of the incubation the wells were washed 6 times with media and the culture continued for 48 h. At 48 h the wells were washed one time with PBS and B-galactosidase enzyme expression determined by chemiluminescence per manufacturers instructions (Tropix Gal-screen TM, Tropix, Bedford, Mass.). Compound toxicity was monitored on sister plates using MTS dye reduction. (See Tables 14 through 16 and FIGS. 21 and 22).

A further data set has as its system HeLa CD4 LTR B-gal cells. As to the kind of experiment: Attachment assay, toxicity on sister plates by MTS. The settings on record: for TC50: attachment assay. On the procedure: as §1, with “reduction.” for “reduction. (See Tables 14 through 16 and FIGS. 21 and 22).”
A further data set concerns HeLa CD4 LTR β-gal cells. As to the kind of experiment: Cytotoxicity for HeLa CD4 LTR β-gal cells. The protocol: At assay termination the assay plates were stained with the soluble tetrazolium-based dye MTS (CellTiter® Reagent, Promega) to determined cell viability and quantify compound toxicity. […] At termination of the assay 20 μL of MTS reagent was added per well. The wells were incubated for 4 h at 37° C., 5% CO2. Adhesive plate scalers were used in place of the lids, the sealed plate was inverted several times to mix the soluble formazan product and the plate was read spectrophotometrically at 490 nm with a 650 nm reference wavelength on a Molecular Devices Vmax plate reader.
This cell line represents one of 3 standard models for performing time of addition assays.

In data set [2] the test system is HIV RoJo (a clinical isolate). Description: Chronically infected PBMCs, supernatant reverse transcriptase activity. The settings on record: 7 day treatment. The protocol: Reverse transcriptase activity was measured in cell-free supernatants. Tritiated thymidine triphosphate (NEN) (TTP) was resuspended in distilled H2O at 5 Ci/mL. Poly rA and oligo dT were prepared as a stock solution which was kept at −20° C. The RT reaction buffer was prepared fresh on a daily basis and consists of 125 μL 1.0 M EGTA, 125 μL dH2O, 110 μL 10% SDS, 50 μL 1.0 M Tris (pH 7.4), 50 μL, 1.0 M DTT, and 40 μL 1.0 M MgCl2. These three solutions were mixed together in a ratio of 2 parts TTP, 1 part poly rA:oligo dT, and 1 part reaction buffer. Ten microliters of this reaction mixture was placed in a round bottom microtiter plate and 15 μL of virus containing supernatant was added and mixed. The plate was incubated at 37° C. in a water bath with a solid support to prevent submersion of the plate and incubated for 60 minutes. Following reaction, the reaction volume was spotted onto pieces of DE81 paper, washed 5 times for 5 minutes each in a 5% sodium phosphate buffer, 2 times for 1 minute each in distilled water, 2 times for 1 minute each in 70% ethanol, and then dried. Opti-Fluor O was added to each sample and incorporated radioactivity was quantitated utilizing a Wallac 1450 Microbetaplus liquid scintillation counter.
In these studies PBMCs are infected with HIV RoJo (a clinical isolate) and a dynamic population of infected PBMCs established over a period of 2 to 3 weeks. This population of infected PBMCs was established and maintained by the addition of fresh PBMCs in a 1:1 ratio every 7 days, thus overcoming the lost of PBMCs to normal cell death processes. Thus a population of cells was established that consisted of uninfected cells, short lived infected cells and long lived infected cells. In experiments where AZT was added to prevent re-infection of the population, we typically saw a 50% reduction in infection following a 7 day treatment. This means that 50% of the virus production from the infected […] population was due re-infection. […] Thus there was a population of infected PBMCs present ([…] of the total) which survived for extended periods of time and thus met the definition of being chronically infected.

The subject of a further data set is HIV. As to the kind of experiment: PBMC time of addition assay. The settings on record: addition after 32 h of infection. The source says: FIGS. 18 and 19 show the results of the time of addition assay with the K and Z compound. In time of addition assays the timed addition of compounds after initial infection allows the identification of specific stages of virus replication. This is seen with the positive control compound AZT. AZT is a reverse transcriptase inhibitor. […] Thus it has an antiviral target that is occurring after completion of reverse transcription. […] In general since this time of addition uses multiple rounds of infection in the PBMCs versus a single round in cell lines systems, lower concentrations of compound will often shift the curve to the left. This is seen in FIG. 18.

The structures appear in SMILES notation. In brackets after ≈: the same amount, converted by molar mass. Like-named read-outs stand apart in the source and are kept apart here. Bounds are passed on as bounds.

For `COc1cc(-c2ccc(/N=N/c3ccc4c(S(=O)(=O)O)cc(S(=O)(=O)O)c(N)c4c3O)c(OC)c2)ccc1/N=N/c1ccc2c(S(=O)(=O)O)cc(S(=O)(=O)O)c(N)c2c1O` [Chicago Sky Blue], the “% VC” value in data set [1] (CONC 0.032) is listed as 90.6%; in data set [1] (CONC 0.1) it was 74.5%; in data set [1] (CONC 0.32) it was 48.2%; in data set [1] (CONC 1), 10.9%; in data set [1] (CONC 3.2) it was 8.3%; in data set [1] (CONC 10) it was 8.0%. Also, the “RLU (Relative Light Units) MEAN” value in data set [1] (CONC 0.032) was 127754.7 RLU; in data set [1] (CONC 0.1), 105105.3 RLU; in data set [1] (CONC 0.32) it was 67955.7 RLU; in data set [1] (CONC 1) it was 15363.3 RLU; in data set [1] (CONC 3.2) it was 11753.3 RLU; in data set [1] (CONC 10), 11266.7 RLU. The IC50 in data set [1] (Human immunodeficiency virus 1, HeLa, read-out: IC50) was 0.3 µg/mL (≈ 0.332 µM); in data set [1] (listed as CHICAGO SKY BLUE) it was “IC50 (μG/mL) = 0.30 μg/mL”. Moreover, the “% CC” value was 93.3% in the data set with HeLa CD4 LTR B-gal cells (CONC 0.032); 80.8% with HeLa CD4 LTR B-gal cells (CONC 0.1); 84.7% with HeLa CD4 LTR B-gal cells (CONC 0.32); 82.6% in the data set on HeLa CD4 LTR B-gal cells (CONC 1); 83.3% in the data set with HeLa CD4 LTR B-gal cells (CONC 3.2); 73.3% with HeLa CD4 LTR B-gal cells (CONC 10). For the same compound, the “TOXICITY VALUES (Cell Titer) MEAN” value with HeLa CD4 LTR B-gal cells (CONC 0.032) amounted to 1.259 O. D; in the data set with HeLa CD4 LTR B-gal cells (CONC 0.1), 1.090 O. D; in the data set with HeLa CD4 LTR B-gal cells (CONC 0.32), 1.142 O. D; with HeLa CD4 LTR B-gal cells (CONC 1), 1.115 O. D; in the data set with HeLa CD4 LTR B-gal cells (CONC 3.2), 1.123 O. D; in the data set with HeLa CD4 LTR B-gal cells (CONC 10), 0.989 O. D. The results for the TC50 in the data set on HeLa CD4 LTR B-gal cells and in the data set with HeLa CD4 LTR B-gal cells (listed as CHICAGO SKY BLUE) were more than 10 µg/mL and “TC50 (μG/mL) = >.10 μg/mL”, respectively.
`C[S+](C)[O-]` [DMSO]: the “% CC” value came to 111.0% with HeLa CD4 LTR β-gal cells (dilution 1:50); 103.2% in the data set with HeLa CD4 LTR β-gal cells (dilution 1:1600); 105.9% in the data set with HeLa CD4 LTR β-gal cells (dilution 1:5000); 99.1% with HeLa CD4 LTR β-gal cells (dilution 1:16000); 101.0% with HeLa CD4 LTR β-gal cells (dilution 1.500); 111.0% in the data set on HeLa CD4 LTR β-gal cells (dilution 11110). In addition, the “TOXICITY VALUES (Cell Titer) MEAN” value turned out to be 1.167 O. D in the data set on HeLa CD4 LTR β-gal cells (dilution 1:50); 1.085 O. D in the data set on HeLa CD4 LTR β-gal cells (dilution 1:1600); 1.113 O. D with HeLa CD4 LTR β-gal cells (dilution 1:5000); 1.042 O. D in the data set with HeLa CD4 LTR β-gal cells (dilution 1:16000); 1.062 O. D in the data set on HeLa CD4 LTR β-gal cells (dilution 1.500); 1.167 O. D in the data set on HeLa CD4 LTR β-gal cells (dilution 11110).
Compound `Cc1cn([C@H]2C[C@H](N=[N+]=[N-])[C@@H](CO)O2)c(=O)[nH]c1=O` [AZT, reference compound] showed a reduction in infection in data set [2] of 50%. The “effect on virus replication” value in the data set with HIV is “no significant effect”.

The values above are taken from patent publication US20030181436A1, “Treatment for AIDS, HIV, and other related diseases and compounds for use therewith” (priority 2001, published 2003).
